Measured values from patent US12516039B2, “N-linked isoquinoline amides as LRRK2 inhibitors, pharmaceutical compositions, and uses thereof” (Merck Sharp & Dohme LLC, priority 2020, dated 2026).

Molecular target: T1, GST-tagged truncated human mutant G2019S LRRK2 (Homo sapiens, UniProt Q5S007, G2019S)
T1 construct: GST-tagged truncated human mutant G2019S LRRK2; purchased Life Technologies Corporation (Carlsbad, CA)
Assay: LRRK2 G2019S Km ATP LanthaScreen assay
Format: biochemical
Conditions: 134 μM ATP (Km ATP), LRRKtide substrate, mean of several tests; for IC50: read-out: LRRK2 pIC50 (converted)
Outline: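 IC50 values are means of repeat runs, fitted with a 4-parameter logistic to the 520/495 nm TR-FRET ratio from a Tb-labeled anti-phospho-LRRKtide antibody added with EDTA. Reactions ran 90 min at room temperature at Km ATP (134 μM) with fluorescein-LRRKtide, after 15-min compound preincubation with truncated GST-tagged G2019S LRRK2.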

T1 sequence (Q5S007 970-2527 G2019S limits assumed): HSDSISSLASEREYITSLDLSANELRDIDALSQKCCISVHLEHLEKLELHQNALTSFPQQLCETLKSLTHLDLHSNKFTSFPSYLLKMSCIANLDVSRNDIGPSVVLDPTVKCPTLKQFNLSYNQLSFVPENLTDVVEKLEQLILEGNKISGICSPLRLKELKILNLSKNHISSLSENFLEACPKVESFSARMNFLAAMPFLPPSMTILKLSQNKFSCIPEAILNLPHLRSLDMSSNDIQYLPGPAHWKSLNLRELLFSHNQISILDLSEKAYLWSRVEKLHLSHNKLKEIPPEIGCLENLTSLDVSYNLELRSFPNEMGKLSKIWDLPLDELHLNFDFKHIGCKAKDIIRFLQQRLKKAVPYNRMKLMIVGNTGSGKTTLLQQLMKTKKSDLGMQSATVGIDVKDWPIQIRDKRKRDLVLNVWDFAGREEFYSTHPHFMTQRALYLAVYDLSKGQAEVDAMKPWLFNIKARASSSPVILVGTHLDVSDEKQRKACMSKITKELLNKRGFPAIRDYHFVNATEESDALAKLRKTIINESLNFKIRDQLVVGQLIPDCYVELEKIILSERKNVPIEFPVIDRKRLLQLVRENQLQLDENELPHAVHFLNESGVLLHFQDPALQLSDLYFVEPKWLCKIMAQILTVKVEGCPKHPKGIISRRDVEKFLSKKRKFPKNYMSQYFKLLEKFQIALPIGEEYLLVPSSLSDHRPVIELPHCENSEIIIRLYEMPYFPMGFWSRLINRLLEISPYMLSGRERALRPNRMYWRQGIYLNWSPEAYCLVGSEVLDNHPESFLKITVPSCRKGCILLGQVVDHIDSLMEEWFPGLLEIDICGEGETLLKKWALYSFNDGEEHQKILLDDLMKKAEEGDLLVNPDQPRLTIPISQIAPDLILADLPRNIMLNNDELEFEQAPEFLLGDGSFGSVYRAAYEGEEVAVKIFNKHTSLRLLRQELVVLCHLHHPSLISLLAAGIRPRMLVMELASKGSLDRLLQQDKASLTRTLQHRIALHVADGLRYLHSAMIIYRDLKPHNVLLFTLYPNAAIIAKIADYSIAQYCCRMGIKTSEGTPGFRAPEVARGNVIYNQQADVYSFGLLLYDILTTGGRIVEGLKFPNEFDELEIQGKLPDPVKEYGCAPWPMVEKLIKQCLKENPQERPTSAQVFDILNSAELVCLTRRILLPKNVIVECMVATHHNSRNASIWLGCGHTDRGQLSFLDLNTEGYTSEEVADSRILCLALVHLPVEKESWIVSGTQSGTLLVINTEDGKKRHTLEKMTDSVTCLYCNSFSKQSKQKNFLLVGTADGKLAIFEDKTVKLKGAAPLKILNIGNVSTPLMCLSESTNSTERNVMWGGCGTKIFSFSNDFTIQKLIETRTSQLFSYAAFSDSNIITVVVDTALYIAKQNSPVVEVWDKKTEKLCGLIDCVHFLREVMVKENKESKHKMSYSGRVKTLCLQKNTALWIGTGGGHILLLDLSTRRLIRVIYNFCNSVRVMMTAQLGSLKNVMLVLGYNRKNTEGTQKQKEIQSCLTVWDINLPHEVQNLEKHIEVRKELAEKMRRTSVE

Row | Molecule | IC50 [nM] | LRRK2 pIC50
1 | Cc1cc2cnc(NC(=O)C3CC34CCOCC4)cc2cc1N1CCN(C2(C)COCC2O)C[C@@H]1C (single isomer, unassigned) [Ex-15.1, (R or S)-N-(6-((2R or 2S)-4-(4-(3R,4R or 3S,4S)-hydroxy-3-methyltetrahydrofuran-3-yl)-2-methylpiperazin-1-yl)-7-methylisoquinolin-3-yl)-6-oxaspiro[2.5]octane-1-carboxamide] | 4.68 | –
2 | Cc1cc2cnc(NC(=O)C3CC34CCOCC4)cc2cc1N1CCN(C2(C)COCC2O)C[C@@H]1C (single isomer, unassigned) [Ex-15.2, (R or S)-N-(6-((2R or 2S)-4-(4-(3R,4R or 3S,4S)-hydroxy-3-methyltetrahydrofuran-3-yl)-2-methylpiperazin-1-yl)-7-methylisoquinolin-3-yl)-6-oxaspiro[2.5]octane-1-carboxamide] | 0.0813 | –
3 | Cn1ncc(C2CC2C(=O)Nc2cc3cc(N4CCN(C5(C)COCC5O)CC4)c(Cl)cc3cn2)n1 (single isomer, unassigned) [Ex-16.1, (1S,2R or 1S,2S)-N-(N-(7-chloro-6-(4-(4-hydroxy-3-methyltetrahydrofuran-3-yl)piperazin-1-yl)isoquinolin-3-yl)-2-(2-methyl-2H-1,2,3-triazol-4-yl)cyclopropane-1-carboxamide] | 0.145 | –
4 | Cn1ncc(C2CC2C(=O)Nc2cc3cc(N4CCN(C5(C)COCC5O)CC4)c(Cl)cc3cn2)n1 (single isomer, unassigned) [Ex-16.2, (1S,2R or 1S,2S)-N-(N-(7-chloro-6-(4-(4-hydroxy-3-methyltetrahydrofuran-3-yl)piperazin-1-yl)isoquinolin-3-yl)-2-(2-methyl-2H-1,2,3-triazol-4-yl)cyclopropane-1-carboxamide] | 0.0813 | –
5 | C[C@]1(O)COC[C@@]1(C)N1CCN(c2cc3cc(NC(=O)[C@@H]4CC45CCOCC5)ncc3cc2Cl)CC1 (single isomer, unassigned) [Ex-17.1, (R) or (S)-N-(7-chloro-6-((3R,4R) or (3S,4S)-4-(4-hydroxy-3,4-dimethyltetrahydrofuran-3-yl)piperazin-1-yl)isoquinolin-3-yl)-6-oxaspiro[2.5]octane-1-carboxamide] | 0.0813 | –
6 | C[C@]1(O)COC[C@@]1(C)N1CCN(c2cc3cc(NC(=O)[C@@H]4CC45CCOCC5)ncc3cc2Cl)CC1 (single isomer, unassigned) [Ex-17.2, (R) or (S)-N-(7-chloro-6-((3R,4R) or (3S,4S)-4-(4-hydroxy-3,4-dimethyltetrahydrofuran-3-yl)piperazin-1-yl)isoquinolin-3-yl)-6-oxaspiro[2.5]octane-1-carboxamide] | 0.126 | –
7 | CC1(O)CCN(c2cc3cc(NC(=O)C4CC4)ncc3cc2Cl)CC1 [Ex-4.2] | 10.5 | –
8 | O=C(Nc1cc2cc(N3CCc4[nH]ncc4C3)c(Cl)cc2cn1)C1CC1 [Ex-4.3] | – | 7.85
9 | CC1(N2CCN(c3cc4cc(NC(=O)C5CC56CC6)ncc4cc3Cl)CC2)COC1 (stereo not shown) [Ex-4.4] | – | 7.85
10 | CC1(O)CC2(CN(c3cc4cc(NC(=O)C5CC5)ncc4cc3Cl)C2)C1 [Ex-4.5] | – | 7.72
11 | O=C(Nc1cc2cc(N3CCC(N4CC(F)C4)CC3)c(Cl)cc2cn1)C1CC12CCOCC2 (stereo not shown) [Ex-4.6] | – | 8.61
12 | O=C(Nc1cc2cc(N3CCC(N4CC(F)(F)C4)CC3)c(Cl)cc2cn1)C1CC12CCOCC2 (stereo not shown) [Ex-4.7] | – | 7.93
13 | CC1(C#N)CCN(c2cc3cc(NC(=O)C4CC45CCOCC5)ncc3cc2Cl)CC1 (stereo not shown) [Ex-4.8] | – | 6.68
14 | CCC1C(C(=O)Nc2cc3cc(N4CCC(F)(C#N)CC4)c(Cl)cc3cn2)C1c1cnn(C)c1 (stereo not shown) [Ex-4.10] | – | 7.29
15 | Cn1cc(C2CC2C(=O)Nc2cc3cc(N4CCC(F)(C#N)CC4)c(Cl)cc3cn2)cn1 (stereo not shown) [Ex-4.11] | – | 7.39
16 | Cc1cc2cnc(NC(=O)C3CC34CCOCC4)cc2cc1N1CCN(C2(C)COCC2O)[C@@H](C)C1 (stereo partly shown) [Ex-6.10] | – | 9.26
17 | CC1(N2CCN(c3cc4cc(NC(=O)C5CC56CCOCC6)ncc4cc3C3CC3)CC2)COCC1O (stereo not shown) [Ex-6.11] | – | 9.57
18 | CCC1(N2CCN(c3cc4cc(NC(=O)C5CC56CCOCC6)ncc4cc3C)CC2)COCC1O (stereo not shown) [Ex-6.12] | – | 9.67
19 | O=C(Nc1cc2cc(N3CCN(C4COC4)CC3)c(Cl)cc2cn1)C1CC1 [Ex-8.1, N-(7-chloro-6-(4-(oxetan-3-yl)piperazin-1-yl)isoquinolin-3-yl)cyclopropanecarboxamide] | – | 7.99

Row | Molecule | IC50 [nM] | LRRK2 pIC50
20 | CN1CCN(c2cc3cc(NC(=O)C4CC4)ncc3cc2Cl)CC1 [Ex-8.2] | – | 7.53
21 | COCCC(=O)Nc1cc2cc(N3CCN(C4(C)COCC4O)CC3)c(Cl)cc2cn1 (stereo not shown) [Ex-9.1] | – | 8.12
22 | CC1(N2CCN(c3cc4cc(NC(=O)C5CCOCC5)ncc4cc3Cl)CC2)COCC1O (stereo not shown) [Ex-9.2] | – | 8.74
23 | CC(C)C1CC(C(=O)Nc2cc3cc(N4CCN(C5(C)COCC5O)CC4)c(Cl)cc3cn2)C1 (stereo not shown) [Ex-9.3] | – | 8.58
24 | CC1(N2CCN(c3cc4cc(NC(=O)C5CCCO5)ncc4cc3Cl)CC2)COCC1O (stereo not shown) [Ex-9.4] | – | 8.40
25 | CC(C)OC1CCC(C(=O)Nc2cc3cc(N4CCN(C5(C)COCC5O)CC4)c(Cl)cc3cn2)OC1 (stereo not shown) [Ex-9.5] | – | 8.28
26 | CC1C(C(=O)Nc2cc3cc(N4CCN(C5(C)CCOC5)CC4)c(Cl)cc3cn2)C1c1cnn(C)c1 (stereo not shown) [Ex-9.6] | 1 | –
27 | Cc1cc2cnc(NC(=O)C3CC3c3ccccn3)cc2cc1N1CCN(C2(C)COCC2F)CC1 (stereo not shown) [Ex-9.19] | – | 10.09
28 | CCC1C(C(=O)Nc2cc3cc(N4CCN(C5(C)COCC5F)CC4)c(C)cc3cn2)C1c1cnn(C)c1 (stereo not shown) [Ex-9.20] | 0.0813 | –
29 | Cc1cc2cnc(NC(=O)C3CC3c3ccccn3)cc2cc1N1CCN(C2(C)CCOC2)CC1 (stereo not shown) [Ex-9.21] | – | 10.09
30 | (1R,2R or 1S,2S)-N-[6-[4-((3R,4R or 3S,4S)-4-fluoro-3-methyl-tetrahydrofuran-3-yl)piperazin-1-yl]-7-methyl-3-isoquinolyl]-2-(1-methylpyrazol-3-yl)cyclopropanecarboxamide [Ex-10.59] | – | 10.09
31 | (1R,2R,3R, or 1R,2S,3R, or 1S,2R,3S, or 1S,2S,3S)-N-[6-[4-((3R,4R or 3S,4S)-4-fluoro-3-methyl-tetrahydrofuran-3-yl)piperazin-1-yl]-7-methyl-3-isoquinolyl]-2-methyl-3-(1-methylpyrazol-4-yl)cyclopropanecarboxamide [Ex-10.58] | – | 10.09
32 | (1R,2R,3R, or 1R,2S,3R, or 1S,2R,3S, or 1S,2S,3S)-N-[7-chloro-6-[4-((3R,4R or 3S,4S)-4-fluoro-3-methyl-tetrahydrofuran-3-yl)piperazin-4-ium-1-yl]-3-isoquinolyl]-2-methyl-3-(2-pyridyl)cyclopropanecarboxamide [Ex-10.71] | – | 7.72
33 | (1R,2R,3R, or 1R,2S,3R, or 1S,2R,3S, or 1S,2S,3S)-N-[7-chloro-6-[4-((3R,4R or 3S,4S)-4-fluoro-3-methyl-tetrahydrofuran-3-yl)piperazin-4-ium-1-yl]-3-isoquinolyl]-2-methyl-3-(2-pyridyl)cyclopropanecarboxamide [Ex-10.72] | – | 10.09
34 | (3R or 3S)-N-[6-[4-((3R,4R or 3S,4S)-4-fluoro-3-methyl-tetrahydrofuran-3-yl)piperazin-1-yl]-7-methyl-3-isoquinolyl]-5,5-dimethyl-tetrahydrofuran-3-carboxamide [Ex-10.93] | – | 9.90
35 | (3R or 3S)-N-[6-[4-((3R,4R or 3S,4S)-4-fluoro-3-methyl-tetrahydrofuran-3-yl)piperazin-1-yl]-7-methyl-3-isoquinolyl]-5,5-dimethyl-tetrahydrofuran-3-carboxamide [Ex-10.94] | – | 9.40
36 | (3R or 3S)-N-[6-[4-((3R,4R or 3S,4S)-4-fluoro-3-methyl-tetrahydrofuran-3-yl)piperazin-1-yl]-7-methyl-3-isoquinolyl]-5,5-dimethyl-tetrahydrofuran-3-carboxamide [Ex-10.95] | – | 9.64
37 | (3R or 3S)-N-[6-[4-((3R,4R or 3S,4S)-4-fluoro-3-methyl-tetrahydrofuran-3-yl)piperazin-1-yl]-7-methyl-3-isoquinolyl]-5,5-dimethyl-tetrahydrofuran-3-carboxamide [Ex-10.96] | – | 8.99
